Data published in patent US12029762B2, “Alkalized organic pharmaceutical or nutraceutical composition” (priority 2009, dated 2024).

Assay: Strength, stamina and endurance of a training test subject
Assay type: in vivo, human
Protocol: Test subject was administered L-Glutamine HCl (pH 6.0) for 30 days.
Training was three days per week, with 3 days of cardio. Dosage was 500 mg per day the first week and 1000 mg per day for week 2-4.
Test subject was taken off the glutamine HCl (pH 6.0) and administered buffered-Glutamine (pH 12.0) for 30 days. Training was three days per week, with 3 days of cardio. Dosage was 500 mg per day for the 5th week and 1000 mg per day for weeks 6-8.

## Cl.NC(=O)CC[C@H](N)C(=O)O [L-Glutamine HCl]
Week 1, 500 mg per day
  changes to strength, stamina or endurance (in words): No noticeable changes
Week 2-4, 1000 mg per day
  changes to strength, stamina or endurance (in words): No noticeable changes
